Data: patent US20260364184A1, “COMPOUND BASED ON OXOISOINDOLINYL-SUBSTITUTED TETRAHYDROPYRIMIDINE-DIONE AND USE THEREOF” (GLUETACS THERAPEUTICS (SHANGHAI) CO., LTD., priority 2023, published 2026)
Values belong to the molecule of their own block, whether it stands above or below them.

Legend:
BRG1 = target: T1, BRG1 (Homo sapiens, UniProt P51532); test: Western blot degradation of BRG1 (SMARCA4); type: cell-based; details: Molt-4 Cell; 24 hours
T1 construct: expression of target proteins in cells; endogenous in cells
T1 sequence (P51532 whole entry): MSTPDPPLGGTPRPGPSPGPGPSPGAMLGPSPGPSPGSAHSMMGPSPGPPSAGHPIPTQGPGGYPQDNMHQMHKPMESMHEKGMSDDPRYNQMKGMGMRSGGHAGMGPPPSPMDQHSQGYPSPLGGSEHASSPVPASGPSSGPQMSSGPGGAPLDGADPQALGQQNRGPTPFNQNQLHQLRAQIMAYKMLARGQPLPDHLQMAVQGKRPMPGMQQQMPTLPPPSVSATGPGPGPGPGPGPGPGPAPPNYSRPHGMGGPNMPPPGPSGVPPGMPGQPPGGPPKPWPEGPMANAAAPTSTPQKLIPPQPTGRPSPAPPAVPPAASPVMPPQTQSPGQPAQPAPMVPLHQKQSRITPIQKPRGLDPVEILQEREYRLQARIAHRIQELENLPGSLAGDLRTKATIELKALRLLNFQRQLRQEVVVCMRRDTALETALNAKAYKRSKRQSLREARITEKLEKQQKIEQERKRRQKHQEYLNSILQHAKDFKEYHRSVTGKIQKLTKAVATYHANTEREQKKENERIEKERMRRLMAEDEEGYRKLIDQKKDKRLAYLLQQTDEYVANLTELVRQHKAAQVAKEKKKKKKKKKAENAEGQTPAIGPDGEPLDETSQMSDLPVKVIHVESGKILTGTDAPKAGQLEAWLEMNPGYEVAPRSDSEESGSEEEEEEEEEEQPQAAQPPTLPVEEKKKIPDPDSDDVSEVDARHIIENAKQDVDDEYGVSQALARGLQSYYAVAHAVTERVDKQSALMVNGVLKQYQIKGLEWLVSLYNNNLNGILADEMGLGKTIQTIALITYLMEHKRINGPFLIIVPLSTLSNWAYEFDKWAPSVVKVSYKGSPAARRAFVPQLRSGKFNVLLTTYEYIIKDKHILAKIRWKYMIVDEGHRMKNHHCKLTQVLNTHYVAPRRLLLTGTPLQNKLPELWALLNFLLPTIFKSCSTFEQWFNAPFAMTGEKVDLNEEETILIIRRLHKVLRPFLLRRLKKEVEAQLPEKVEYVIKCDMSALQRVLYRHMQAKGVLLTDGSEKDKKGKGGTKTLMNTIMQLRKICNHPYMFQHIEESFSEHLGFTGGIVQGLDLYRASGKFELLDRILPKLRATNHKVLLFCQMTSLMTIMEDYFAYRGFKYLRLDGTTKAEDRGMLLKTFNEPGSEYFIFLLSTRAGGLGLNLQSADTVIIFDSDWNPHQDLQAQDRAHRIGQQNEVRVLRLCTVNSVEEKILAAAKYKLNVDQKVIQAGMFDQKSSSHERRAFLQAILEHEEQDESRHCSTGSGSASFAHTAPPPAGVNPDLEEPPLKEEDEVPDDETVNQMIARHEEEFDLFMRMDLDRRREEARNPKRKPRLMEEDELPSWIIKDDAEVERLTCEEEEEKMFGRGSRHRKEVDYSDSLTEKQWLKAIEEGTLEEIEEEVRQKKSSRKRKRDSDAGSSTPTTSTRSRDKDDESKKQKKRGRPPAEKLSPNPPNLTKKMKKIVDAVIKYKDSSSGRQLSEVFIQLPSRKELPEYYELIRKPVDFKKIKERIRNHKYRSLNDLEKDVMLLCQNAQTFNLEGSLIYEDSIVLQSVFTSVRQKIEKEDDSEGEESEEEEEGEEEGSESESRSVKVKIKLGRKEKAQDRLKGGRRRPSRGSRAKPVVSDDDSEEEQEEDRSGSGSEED
Procedure: (§1) Conventional Western blot assay was performed to evaluate the effects of the compounds of the present disclosure on the expression of target proteins in cells.
(§2) (1) Cell Seeding and Protein Harvesting: The selected cells were processed according to the cell seeding procedure and protein harvesting procedure in Table II-2.
(§3) (2) To the collected supernatant, 5×SDS sample loading buffer was added, followed by denaturation at 95 °C for 5 minutes. The denatured samples were then separated by SDS-PAGE electrophoresis on a polyacrylamide gel. Proteins were transferred to a nitrocellulose membrane (0.45 μm NC membrane), blocked with blocking buffer at room temperature for 1 hour, and subjected to antibody incubation and development procedures according to the antibody manufacturer's instructions (Cell Signaling Technology).
(§4) Half-Maximal Degradation Concentration value (the drug concentration required for degrading proteins by 50%, abbreviated as DC50) reads method: comparing the grayscale values of Western blot bands from drug-treated samples with those from blank DMSO-treated controls, and identifying the drug concentration range at which the grayscale value is half that of the DMSO-treated control bands.
(§5) DC50 values can be calculated using ImageJ software to measure grayscale values of Western blot bands from drug-treated samples. The concentration-response curve is fitted to estimate the drug concentration corresponding to half the grayscale value.
(§6) Target protein remaining (%) refers to the percentage of target protein remaining in cells after treatment with protein degrader compounds.
(§7) Calculation method for target protein remaining (%): Use ImageJ software to measure grayscale values of Western blot bands from drug (protein degrader)-treated samples. The grayscale value of drug-treated bands is divided by that of internal control protein bands, and the resulting quotient is normalized to obtain the relative percentage of remaining target protein after protein degrader treatment.
(§8) Target protein degradation rate (%)=1−target protein remaining (%).

BRM = target: T2, BRM (Homo sapiens, UniProt P51531); test: Western blot degradation of BRM (SMARCA2); type: cell-based; details: Molt-4 Cell; 24 hours
T2 construct: expression of target proteins in cells; endogenous in cells
T2 sequence (P51531 whole entry): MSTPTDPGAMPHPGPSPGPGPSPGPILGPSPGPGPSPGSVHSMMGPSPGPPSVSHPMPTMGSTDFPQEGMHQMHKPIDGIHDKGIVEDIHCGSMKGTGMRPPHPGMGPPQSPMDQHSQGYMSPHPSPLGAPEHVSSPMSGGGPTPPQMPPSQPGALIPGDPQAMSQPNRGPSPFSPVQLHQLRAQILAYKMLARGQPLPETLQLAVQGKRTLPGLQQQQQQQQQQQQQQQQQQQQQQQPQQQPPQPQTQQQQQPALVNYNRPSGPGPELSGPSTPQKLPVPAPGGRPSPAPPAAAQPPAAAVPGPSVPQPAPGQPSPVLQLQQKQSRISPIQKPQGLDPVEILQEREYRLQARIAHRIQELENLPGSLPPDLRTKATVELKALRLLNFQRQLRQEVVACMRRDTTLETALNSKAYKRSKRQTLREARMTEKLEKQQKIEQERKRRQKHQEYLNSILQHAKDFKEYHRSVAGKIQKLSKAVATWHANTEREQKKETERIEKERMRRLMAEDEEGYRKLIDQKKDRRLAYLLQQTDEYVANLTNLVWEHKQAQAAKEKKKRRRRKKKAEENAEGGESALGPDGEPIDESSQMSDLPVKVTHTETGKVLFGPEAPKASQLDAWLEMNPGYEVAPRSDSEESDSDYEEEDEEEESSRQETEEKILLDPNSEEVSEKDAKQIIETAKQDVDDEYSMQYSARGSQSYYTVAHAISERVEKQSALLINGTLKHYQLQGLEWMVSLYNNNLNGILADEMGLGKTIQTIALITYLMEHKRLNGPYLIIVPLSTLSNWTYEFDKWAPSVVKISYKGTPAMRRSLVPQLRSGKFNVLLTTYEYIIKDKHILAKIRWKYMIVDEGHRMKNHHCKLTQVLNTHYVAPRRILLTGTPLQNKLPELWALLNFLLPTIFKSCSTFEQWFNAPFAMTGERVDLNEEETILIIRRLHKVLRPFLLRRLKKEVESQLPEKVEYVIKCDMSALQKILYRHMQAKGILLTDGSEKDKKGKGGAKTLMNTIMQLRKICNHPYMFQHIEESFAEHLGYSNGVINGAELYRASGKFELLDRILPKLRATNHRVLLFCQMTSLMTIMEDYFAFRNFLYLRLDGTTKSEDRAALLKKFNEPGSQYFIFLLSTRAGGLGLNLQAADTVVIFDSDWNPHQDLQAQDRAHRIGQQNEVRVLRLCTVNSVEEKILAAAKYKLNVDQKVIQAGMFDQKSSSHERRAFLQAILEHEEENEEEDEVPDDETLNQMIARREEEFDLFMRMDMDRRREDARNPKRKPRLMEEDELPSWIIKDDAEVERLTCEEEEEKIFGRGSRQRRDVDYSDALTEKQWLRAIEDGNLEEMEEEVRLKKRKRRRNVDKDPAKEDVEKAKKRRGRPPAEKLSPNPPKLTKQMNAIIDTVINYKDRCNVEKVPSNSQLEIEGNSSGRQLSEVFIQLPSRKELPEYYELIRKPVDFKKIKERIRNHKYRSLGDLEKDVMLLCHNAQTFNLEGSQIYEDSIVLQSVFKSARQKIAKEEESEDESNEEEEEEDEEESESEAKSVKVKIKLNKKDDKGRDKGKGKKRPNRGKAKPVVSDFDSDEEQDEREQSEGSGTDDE
Procedure: as §1, §2, §3, §4, §5, §6, §7, §8

[1] = test system: Human prostate cancer cell line (NCI-H358); test: Inhibition of NCI-H358 cell proliferation (CellTiter luminescent viability); details: Table IH1, BCL-2 inhibitor-based, 96 hours; for inhibition at 0.01 µM: NCI-H358, 10 nM, read-out: Inhibition Rate at 10 nM (%); for inhibition at 0.5 µM: NCI-H358, 500 nM, read-out: Inhibition Rate at 500 nM (%)
Procedure: (§9) The tumor cells used herein were cultured in a cell culture medium listed in table 3 at 37 °C in an incubator with 5% CO2. Prior to experimentation, all cell lines used were correctly identified by STR profiling, and tested negative for mycoplasma contamination using a mycoplasma detection kit through routine screenings.
(§10) The IC50 values of the compounds of the present disclosure (including the compounds in Table 1, Table 2, and Examples 1-468) were determined using the CellTiter-Meiluncell Luminescent Cell Viability Assay Kit from Dalian Meilun Biotech Co., Ltd. The detailed procedure is as follows: Tumor cells were seeded in 96-well cell culture plates at the densities specified in Table 4. On the following day, the test compounds of the present disclosure were subjected to serial dilution. The dilution can be performed according to one of the following two methods: • (1) The first dilution method: The test compounds of the present disclosure (including the compounds in Table 1, Table 2, and Examples 1-468) were subjected to 5-fold serial dilutions starting from a highest concentration of 2000 μM, resulting in a total of 9 concentrations from high to low (2000, 400, 80, 16, 3.2, 0.64, 0.128, 0.0256, 0.00512 μM). Subsequently, 0.5 μL of the test compound dilution was transferred into the 96-well plate containing the cells, with each well containing 100 μL of cell culture medium. […] Into the 96-well plate, the diluted test compounds and corresponding detection reagents were added, resulting in final test compound concentrations of 500 nM and 10 nM, respectively. The experimental procedure is described below using the diluted 2 μM test compound as an example.
(§11) 0.5 μL of the aforementioned diluted compound of the present disclosure (including the compounds in Table 1, Table 2, and Examples 1-468) was added to the seeded cells in 100 μL of medium, yielding a final test compound concentration of 10 nM. After the cells were treated with the compounds of the present disclosure for a specified period, the cell viability assay reagent was added to the culture medium according to the kit's instructions to determine cell viability. […] All controls were treated using the same procedure as the compounds of the present disclosure. The growth inhibition curves for the compounds of the present disclosure were plotted using Prism GraphPad software, and the IC50 values were calculated therefrom.

[2] = test system: Human acute lymphocytic leukemia T lymphocytes cell line (CCRF-CEM); test: Inhibition of CCRF-CEM cell proliferation (CellTiter luminescent viability); type: cell-based; details: Homo sapiens, 96 h, Table IH2, BCL-2 inhibitor-based; for inhibition at 0.01 µM: 10 nM, read-out: Inhibition Rate at 10 nM (%); for inhibition at 0.5 µM: 500 nM, read-out: Inhibition Rate at 500 nM (%)
[3] = test system: Human Acute T Lymphoblastic Leukemia Cells (Molt-4); test: Inhibition of Molt-4 cell proliferation (CellTiter luminescent viability); type: cell-based; details: Homo sapiens, MOLT-4, 96 h, Table IH3, BCL-2 inhibitor-based, 96 hours; for inhibition at 0.01 µM: Molt-4, 10 nM, read-out: Inhibition Rate at 10 nM (%); for inhibition at 0.5 µM: Molt-4, 500 nM, read-out: Inhibition Rate at 500 nM (%)
AKT = test: Western blot degradation of AKT; type: cell-based; details: hPBMC Cell; 24 hours
Procedure: as §1, §2, §3, §4, §5, §6, §7, §8

[4] = test system: Human neuroblastoma cell line (SK-N-AS); test: Inhibition of SK-N-AS cell proliferation (CellTiter luminescent viability); type: cell-based; details: Table IK1, AKT inhibitor-based, 96 hours; for inhibition at 0.01 µM: 10 nM, read-out: Inhibition Rate at 10 nM (%); for inhibition at 0.5 µM: 500 nM, read-out: Inhibition Rate at 500 nM (%)
Procedure: as §9, §10, §11

[5] = target: T3, human Cereblon WT GST-tagged protein (CRBN) (Homo sapiens, UniProt Q96SW2); test: CRBN binding by HTRF (Cereblon binding kit)
T3 construct: purchased CISBIO 64BDCRBNPEH
T3 sequence (Q96SW2 whole entry): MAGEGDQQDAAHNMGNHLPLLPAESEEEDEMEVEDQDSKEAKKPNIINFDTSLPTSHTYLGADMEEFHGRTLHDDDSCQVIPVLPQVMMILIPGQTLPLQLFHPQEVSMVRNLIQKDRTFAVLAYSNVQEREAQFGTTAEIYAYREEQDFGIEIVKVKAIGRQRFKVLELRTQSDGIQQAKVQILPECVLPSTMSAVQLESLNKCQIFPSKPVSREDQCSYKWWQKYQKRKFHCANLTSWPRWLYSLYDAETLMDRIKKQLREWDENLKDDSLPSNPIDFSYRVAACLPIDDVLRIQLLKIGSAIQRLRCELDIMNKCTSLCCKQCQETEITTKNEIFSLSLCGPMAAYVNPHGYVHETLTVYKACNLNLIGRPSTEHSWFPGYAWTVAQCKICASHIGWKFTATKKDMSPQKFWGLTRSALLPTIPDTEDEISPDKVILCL
In short: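 GST-tagged human Cereblon WT was incubated 3 h at room temperature with compound, thalidomide-Re tracer and Eu anti-GST antibody. Final compound concentrations were 10 to 0.00064 µM (7 points) or 2 and 0.5 µM. Inhibition rate was calculated from HTRF 665/620 nm ratios versus solvent and blank controls.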

Degradation of substrate protein BRM (substrate protein remaining %) (BRM): A (0%≤substrate protein remaining %≤80%)
SMILES: Nc1nnc(-c2ccccc2O)cc1N1CCN(CC2CCN(C3CCN(c4ccc5c(c4)C(=O)N(N4CCC(=O)NC4=O)C5=O)CC3)CC2)CC1 [GT-05095, 5-(4-((4-(3-amino-6-(2-hydroxyphenyl)pyridazin-4-yl)piperazin-1-yl)methyl)-[1,4′-bipiperidin]-1′-yl)-2-(2,4-dioxotetrahydropyrimidin-1(2H)-yl)isoindoline-1,3-dione]
Degradation of substrate protein BRG1 (substrate protein remaining %) (BRG1): B (80%<substrate protein remaining %≤100%)

Degradation of substrate protein BRG1 (substrate protein remaining %) (BRG1): A (0%≤substrate protein remaining %≤80%)
Degradation of substrate protein BRM (substrate protein remaining %) (BRM): A (0%≤substrate protein remaining %≤80%)
SMILES: Nc1nnc(-c2ccccc2O)cc1N1CCN(CC2CCN(c3ccc4c(c3)C(=O)N(N3CCC(=O)NC3=O)C4=O)CC2)CC1 [GT-04954, 5-(4-((4-(3-amino-6-(2-hydroxyphenyl)pyridazin-4-yl)piperazin-1-yl)methyl)piperidin-1-yl)-2-(2,4-dioxotetrahydropyrimidin-1(2H)-yl)isoindoline-1,3-dione]

inhibition at 0.5 µM ([5]; 0.5 μM, read-out: Inhibition Rate at 0.5 μM (%)): 10 to 20%
inhibition at 2 µM ([5]; 2 μM, read-out: Inhibition Rate at 2 μM (%)): 53 to 60%
SMILES: Cn1ncc(Cl)c1-c1cc(C(=O)N[C@H](CNCC2CCN(c3ccc4c(c3)C(=O)N(N3CCC(=O)NC3=O)C4=O)CC2)Cc2ccc(F)c(F)c2)oc1Cl [GT-08584, (S)-5-chloro-4-(4-chloro-1-methyl-1H-pyrazol-5-yl)-N-(1-(3,4-difluorophenyl)-3-(((1-(2-(2,4-dioxotetrahydropyrimidin-1(2H)-yl)-1,3-dioxoisoindolin-5-yl)piperidin-4-yl)methyl)amino)propan-2-yl) furan-2-carboxamide]
Degradation of substrate protein AKT (substrate protein remaining %) (AKT): A (0%≤substrate protein remaining %≤80%)

Degradation of substrate protein BRM (substrate protein remaining %) (BRM): A (0%≤substrate protein remaining %≤80%)
SMILES: Nc1nnc(-c2cc(F)ccc2O)cc1N1CCN(CC2CCN(C3CCN(c4ccc5c(c4)C(=O)N(N4CCC(=O)NC4=O)C5=O)CC3)CC2)CC1 [GT-05094, 5-(4-((4-(3-amino-6-(5-fluoro-2-hydroxyphenyl)pyridazin-4-yl)piperazin-1-yl)methyl)-[1,4′-bipiperidin]-1′-yl)-2-(2,4-dioxotetrahydropyrimidin-1(2H)-yl)isoindoline-1,3-dione]
Degradation of substrate protein BRG1 (substrate protein remaining %) (BRG1): B (80%<substrate protein remaining %≤100%)

The remaining lines, values behind:

SMILES: CC1(C)CCC(CN2CCN(c3ccc(C(=O)NS(=O)(=O)c4ccc(NCC5CCOCC5)c([N+](=O)[O-])c4)c(Oc4cnc5[nH]ccc5c4)c3)CC2)=C(c2ccc(Cl)cc2)C1 [ABT-199, Venetoclax, reference compound]
inhibition at 0.01 µM [1]: 5 to 10%
inhibition at 0.5 µM [1]: 5 to 10%
inhibition at 0.01 µM [2]: -5 to 0%
inhibition at 0.5 µM [2]: -5 to 0%
inhibition at 0.01 µM [3]: -5 to 0%
inhibition at 0.5 µM [3]: 30 to 40%

SMILES: Nc1nnc(-c2ccccc2O)cc1N1CCN(Cc2ccc3c(c2)CN(N2CCC(=O)NC2=O)C3=O)CC1 [GT-04952, 1-(5-((4-(3-amino-6-(2-hydroxyphenyl)pyridazin-4-yl)piperazin-1-yl)methyl)-1-oxoisoindolin-2-yl)dihydropyrimidine-2,4 (1H,3H)-dione]
Degradation of substrate protein BRG1 (substrate protein remaining %) (BRG1): A (0%≤substrate protein remaining %≤80%)
Degradation of substrate protein BRM (substrate protein remaining %) (BRM): A (0%≤substrate protein remaining %≤80%)

SMILES: CC1(C)CCC(c2ccc(Cl)cc2)=C(CN2CCN(c3ccc(C(=O)NS(=O)(=O)c4ccc(N[C@H](CCN5CC6CCC(C5)N6Cc5ccc6c(c5)CN(N5CCC(=O)NC5=O)C6=O)CSc5ccccc5)c(S(=O)(=O)C(F)(F)F)c4)cc3)CC2)C1 [GT-07813, 4-(4-((4′-chloro-4,4-dimethyl-3,4,5,6-tetrahydro-[1,1′-biphenyl]-2-yl)methyl)piperazin-1-yl)-N-((4-(((2R)-4-(8-((2-(2,4-dioxotetrahydropyrimidin-1(2H)-yl)-1-oxoisoindolin-5-yl)methyl)-3,8-diazabicyclo[3.2.1]octan-3-yl)-1-(phenylthio)butan-2-yl)amino)-3-((trifluoromethyl)sulfonyl)phenyl)sulfonyl)benzamide]
inhibition at 0.01 µM [1]: 15 to 20%
inhibition at 0.5 µM [1]: 20 to 30%
inhibition at 0.01 µM [2]: 5 to 10%
inhibition at 0.5 µM [2]: 60 to 70%
inhibition at 0.01 µM [3]: 10 to 15%
inhibition at 0.5 µM [3]: 80 to 100%

SMILES: Cn1ncc(Cl)c1-c1cc(C(=O)N[C@@H](Cc2cccc(F)c2)CN2CCN(Cc3ccc4c(c3)CN(N3CCC(=O)NC3=O)C4=O)CC2)sc1Cl [GT-08576, (S)-5-chloro-4-(4-chloro-1-methyl-1H-pyrazol-5-yl)-N-(1-(4-((2-(2,4-dioxotetrahydropyrimidin-1(2H)-yl)-1-oxoisoindolin-5-yl)methyl)piperazin-1-yl)-3-(3-fluorophenyl)propan-2-yl)thiophene-2-carboxamide]
Degradation of substrate protein AKT (substrate protein remaining %) (AKT): A (0%≤substrate protein remaining %≤80%)
inhibition at 0.01 µM [4]: 15 to 20%
inhibition at 0.5 µM [4]: 20 to 30%

SMILES: Cn1ncc(Cl)c1-c1cc(C(=O)N[C@H](CNCc2ccc3c(c2)CN(N2CCC(=O)NC2=O)C3=O)Cc2ccc(F)c(F)c2)oc1Cl [GT-08574, (S)-5-chloro-4-(4-chloro-1-methyl-1H-pyrazol-5-yl)-N-(1-(3,4-difluorophenyl)-3-(((2-(2,4-dioxotetrahydropyrimidin-1(2H)-yl)-1-oxoisoindolin-5-yl)methyl)amino)propan-2-yl) furan-2-carboxamide]
Degradation of substrate protein AKT (substrate protein remaining %) (AKT): A (0%≤substrate protein remaining %≤80%)
inhibition at 0.01 µM [4]: 5 to 10%
inhibition at 0.5 µM [4]: 20 to 30%

SMILES: Nc1nnc(-c2cc(F)ccc2O)cc1N1CCN(CC2CCN(c3cccc4c3C(=O)N(N3CCC(=O)NC3=O)C4=O)CC2)CC1 [GT-05069, 4-(4-((4-(3-amino-6-(5-fluoro-2-hydroxyphenyl)pyridazin-4-yl)piperazin-1-yl)methyl)piperidin-1-yl)-2-(2,4-dioxotetrahydropyrimidin-1(2H)-yl)isoindoline-1,3-dione]
Degradation of substrate protein BRG1 (substrate protein remaining %) (BRG1): A (0%≤substrate protein remaining %≤80%)
Degradation of substrate protein BRM (substrate protein remaining %) (BRM): A (0%≤substrate protein remaining %≤80%)
